Experimental data from ChEMBL document CHEMBL3991601, “The target landscape of clinical kinase drugs” (Science, 2017).
Calls of active or inactive are those of the source. For most assays here, no stated cut-off is given here; in the data, actives have a measured Kd and inactives only a lower limit.

Columns and labels:
[1] = target: Tyrosine-protein kinase Lck (Homo sapiens, UniProt P06239)
[2] = target: T1, Ras-related protein Rab-10 (Homo sapiens, UniProt P61026)
T1 sequence (P61026 whole entry): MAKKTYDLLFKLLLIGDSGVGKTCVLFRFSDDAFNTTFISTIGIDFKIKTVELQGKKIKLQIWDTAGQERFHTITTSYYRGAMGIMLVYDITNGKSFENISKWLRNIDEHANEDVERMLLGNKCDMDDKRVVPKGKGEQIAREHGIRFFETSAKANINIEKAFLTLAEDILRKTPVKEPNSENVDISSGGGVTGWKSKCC

[3] = target: T2, Non-receptor tyrosine-protein kinase TNK1 (Homo sapiens, UniProt Q13470)
T2 sequence (Q13470 whole entry): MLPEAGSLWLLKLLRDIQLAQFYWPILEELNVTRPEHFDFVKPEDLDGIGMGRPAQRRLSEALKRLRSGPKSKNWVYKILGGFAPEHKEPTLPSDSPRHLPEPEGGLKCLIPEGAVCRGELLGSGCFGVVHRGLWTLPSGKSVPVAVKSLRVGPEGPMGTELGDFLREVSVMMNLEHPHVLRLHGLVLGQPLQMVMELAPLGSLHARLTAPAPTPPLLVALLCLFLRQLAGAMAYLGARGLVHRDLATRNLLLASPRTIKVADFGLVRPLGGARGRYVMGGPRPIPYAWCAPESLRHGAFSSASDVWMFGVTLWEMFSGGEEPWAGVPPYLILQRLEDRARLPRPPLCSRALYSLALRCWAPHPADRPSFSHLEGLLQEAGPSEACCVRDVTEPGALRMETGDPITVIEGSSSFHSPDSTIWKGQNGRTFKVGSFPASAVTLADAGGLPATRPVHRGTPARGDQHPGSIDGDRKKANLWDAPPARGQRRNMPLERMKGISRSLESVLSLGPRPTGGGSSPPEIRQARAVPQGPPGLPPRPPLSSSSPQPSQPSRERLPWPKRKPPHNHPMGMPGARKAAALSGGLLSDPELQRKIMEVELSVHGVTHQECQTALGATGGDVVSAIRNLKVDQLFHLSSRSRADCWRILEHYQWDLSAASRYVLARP

[4] = target: Protein-tyrosine kinase 6 (Homo sapiens, UniProt Q13882)
[5] = target: T3, Discoidin domain-containing receptor 2 (Homo sapiens, UniProt Q16832)
T3 sequence (Q16832 whole entry): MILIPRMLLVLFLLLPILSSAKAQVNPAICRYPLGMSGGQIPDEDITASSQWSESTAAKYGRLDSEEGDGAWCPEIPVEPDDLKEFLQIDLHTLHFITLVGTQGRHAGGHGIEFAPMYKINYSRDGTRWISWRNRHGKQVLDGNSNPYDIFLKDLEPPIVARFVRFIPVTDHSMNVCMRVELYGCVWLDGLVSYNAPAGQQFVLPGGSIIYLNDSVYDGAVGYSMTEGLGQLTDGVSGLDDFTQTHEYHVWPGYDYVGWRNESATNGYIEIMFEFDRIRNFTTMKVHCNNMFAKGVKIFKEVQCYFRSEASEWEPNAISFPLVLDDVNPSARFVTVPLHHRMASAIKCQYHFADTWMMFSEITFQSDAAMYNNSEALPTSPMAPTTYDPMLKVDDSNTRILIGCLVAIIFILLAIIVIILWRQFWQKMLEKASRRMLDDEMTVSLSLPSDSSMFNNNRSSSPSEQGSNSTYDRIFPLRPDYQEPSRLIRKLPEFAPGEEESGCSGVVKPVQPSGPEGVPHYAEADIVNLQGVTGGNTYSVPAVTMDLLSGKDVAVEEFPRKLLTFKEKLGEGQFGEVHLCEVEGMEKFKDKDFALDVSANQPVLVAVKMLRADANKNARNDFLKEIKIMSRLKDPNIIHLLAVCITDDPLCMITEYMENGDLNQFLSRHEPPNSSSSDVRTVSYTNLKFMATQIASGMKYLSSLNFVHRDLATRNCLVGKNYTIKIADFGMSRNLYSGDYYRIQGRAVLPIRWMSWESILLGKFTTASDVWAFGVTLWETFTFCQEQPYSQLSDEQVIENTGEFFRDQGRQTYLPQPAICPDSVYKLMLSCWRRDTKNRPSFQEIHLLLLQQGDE

[6] = target: T4, Serine/threonine-protein kinase 4 (Homo sapiens, UniProt Q13043)
T4 sequence (Q13043 whole entry): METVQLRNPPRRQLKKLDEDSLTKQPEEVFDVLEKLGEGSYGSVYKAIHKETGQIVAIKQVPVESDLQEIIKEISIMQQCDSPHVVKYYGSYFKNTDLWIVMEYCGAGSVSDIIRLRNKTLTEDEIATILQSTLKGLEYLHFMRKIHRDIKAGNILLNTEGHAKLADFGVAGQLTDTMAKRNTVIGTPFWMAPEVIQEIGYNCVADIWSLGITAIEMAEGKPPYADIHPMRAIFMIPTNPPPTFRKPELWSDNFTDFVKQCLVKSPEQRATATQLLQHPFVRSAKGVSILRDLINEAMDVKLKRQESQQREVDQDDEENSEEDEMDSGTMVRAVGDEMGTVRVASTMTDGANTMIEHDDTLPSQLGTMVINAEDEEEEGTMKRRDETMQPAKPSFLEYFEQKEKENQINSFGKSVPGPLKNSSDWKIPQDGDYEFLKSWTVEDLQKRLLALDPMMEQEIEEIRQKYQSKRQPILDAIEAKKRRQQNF

[7] = target: Tyrosine-protein kinase Yes (Homo sapiens, UniProt P07947)
LIM domain kinase 1 = LIM domain kinase 1 (Homo sapiens, UniProt P53667)
[8] = target: RAC-alpha serine/threonine-protein kinase (Homo sapiens, UniProt P31749)
[9] = target: T5, Dual specificity mitogen-activated protein kinase kinase 5 (Homo sapiens, UniProt Q13163)
T5 sequence (Q13163 whole entry): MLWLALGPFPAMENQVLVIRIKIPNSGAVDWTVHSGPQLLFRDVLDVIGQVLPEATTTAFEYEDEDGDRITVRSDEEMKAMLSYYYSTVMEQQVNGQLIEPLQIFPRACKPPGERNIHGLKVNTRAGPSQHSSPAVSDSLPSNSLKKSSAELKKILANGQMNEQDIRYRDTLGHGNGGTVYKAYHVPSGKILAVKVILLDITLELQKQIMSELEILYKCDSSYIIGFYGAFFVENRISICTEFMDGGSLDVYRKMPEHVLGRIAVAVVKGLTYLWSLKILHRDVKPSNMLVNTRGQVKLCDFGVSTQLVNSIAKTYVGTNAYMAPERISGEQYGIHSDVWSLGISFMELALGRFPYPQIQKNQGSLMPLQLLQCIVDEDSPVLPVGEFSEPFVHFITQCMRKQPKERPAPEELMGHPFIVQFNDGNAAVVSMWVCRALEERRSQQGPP

Chain of Protein-tyrosine kinase 6 (Q13882 whole entry, the tested form may be a part): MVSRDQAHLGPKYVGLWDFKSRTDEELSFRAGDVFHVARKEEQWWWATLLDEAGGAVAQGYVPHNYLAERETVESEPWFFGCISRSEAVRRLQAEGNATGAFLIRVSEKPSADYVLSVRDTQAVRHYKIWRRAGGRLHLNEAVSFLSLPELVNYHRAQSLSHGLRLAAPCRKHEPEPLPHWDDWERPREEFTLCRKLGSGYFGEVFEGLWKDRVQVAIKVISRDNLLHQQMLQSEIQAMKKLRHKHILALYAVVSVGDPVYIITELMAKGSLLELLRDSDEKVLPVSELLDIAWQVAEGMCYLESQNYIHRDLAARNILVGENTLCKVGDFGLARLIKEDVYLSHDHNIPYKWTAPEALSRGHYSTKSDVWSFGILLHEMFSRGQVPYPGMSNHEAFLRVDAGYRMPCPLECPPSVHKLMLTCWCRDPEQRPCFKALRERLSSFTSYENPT
Chain of Tyrosine-protein kinase Lck (P06239 whole entry): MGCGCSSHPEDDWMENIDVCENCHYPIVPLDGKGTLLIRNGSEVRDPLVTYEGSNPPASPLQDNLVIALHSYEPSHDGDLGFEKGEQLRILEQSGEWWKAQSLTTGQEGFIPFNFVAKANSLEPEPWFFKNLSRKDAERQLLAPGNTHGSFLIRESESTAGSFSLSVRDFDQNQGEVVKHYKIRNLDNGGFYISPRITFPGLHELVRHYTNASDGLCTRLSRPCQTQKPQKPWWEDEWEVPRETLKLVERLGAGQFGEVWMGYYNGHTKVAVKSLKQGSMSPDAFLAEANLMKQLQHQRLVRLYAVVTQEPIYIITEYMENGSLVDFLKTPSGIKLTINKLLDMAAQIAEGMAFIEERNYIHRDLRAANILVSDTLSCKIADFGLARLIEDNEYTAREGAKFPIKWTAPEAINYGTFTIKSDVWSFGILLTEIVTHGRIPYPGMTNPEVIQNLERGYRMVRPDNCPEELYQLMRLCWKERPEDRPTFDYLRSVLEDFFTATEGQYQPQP
Chain of LIM domain kinase 1 (P53667 whole entry, the tested form may be a part): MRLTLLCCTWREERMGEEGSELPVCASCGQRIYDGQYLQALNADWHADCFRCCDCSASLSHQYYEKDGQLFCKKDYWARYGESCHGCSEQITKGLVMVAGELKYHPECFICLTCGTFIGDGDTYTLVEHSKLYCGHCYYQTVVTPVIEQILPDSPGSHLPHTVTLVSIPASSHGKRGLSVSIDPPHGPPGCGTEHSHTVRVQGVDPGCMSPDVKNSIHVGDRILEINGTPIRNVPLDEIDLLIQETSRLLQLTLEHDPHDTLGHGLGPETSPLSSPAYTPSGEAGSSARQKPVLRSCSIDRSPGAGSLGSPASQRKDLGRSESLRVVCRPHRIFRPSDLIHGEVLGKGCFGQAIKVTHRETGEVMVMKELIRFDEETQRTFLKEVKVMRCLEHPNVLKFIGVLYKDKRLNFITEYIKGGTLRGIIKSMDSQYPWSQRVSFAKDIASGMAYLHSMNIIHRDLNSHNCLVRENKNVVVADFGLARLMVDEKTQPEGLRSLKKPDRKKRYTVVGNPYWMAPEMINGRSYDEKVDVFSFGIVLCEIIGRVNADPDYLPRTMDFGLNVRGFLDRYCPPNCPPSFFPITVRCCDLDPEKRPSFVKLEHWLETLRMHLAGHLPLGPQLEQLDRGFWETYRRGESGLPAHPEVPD
Chain of RAC-alpha serine/threonine-protein kinase (P31749 whole entry): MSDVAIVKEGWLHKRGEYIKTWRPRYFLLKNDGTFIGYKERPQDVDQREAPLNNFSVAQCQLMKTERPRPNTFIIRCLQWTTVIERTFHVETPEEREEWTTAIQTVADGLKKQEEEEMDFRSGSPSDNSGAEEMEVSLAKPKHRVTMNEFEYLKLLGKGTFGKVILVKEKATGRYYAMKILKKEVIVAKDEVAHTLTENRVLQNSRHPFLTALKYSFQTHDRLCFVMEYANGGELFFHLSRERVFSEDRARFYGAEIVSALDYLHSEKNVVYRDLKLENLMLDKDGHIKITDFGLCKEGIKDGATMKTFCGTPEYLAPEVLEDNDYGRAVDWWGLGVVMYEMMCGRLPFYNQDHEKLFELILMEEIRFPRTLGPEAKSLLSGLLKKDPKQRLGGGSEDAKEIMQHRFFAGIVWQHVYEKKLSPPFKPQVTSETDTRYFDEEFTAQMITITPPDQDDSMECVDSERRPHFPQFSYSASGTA
Chain of Tyrosine-protein kinase Yes (P07947 whole entry, the tested form may be a part): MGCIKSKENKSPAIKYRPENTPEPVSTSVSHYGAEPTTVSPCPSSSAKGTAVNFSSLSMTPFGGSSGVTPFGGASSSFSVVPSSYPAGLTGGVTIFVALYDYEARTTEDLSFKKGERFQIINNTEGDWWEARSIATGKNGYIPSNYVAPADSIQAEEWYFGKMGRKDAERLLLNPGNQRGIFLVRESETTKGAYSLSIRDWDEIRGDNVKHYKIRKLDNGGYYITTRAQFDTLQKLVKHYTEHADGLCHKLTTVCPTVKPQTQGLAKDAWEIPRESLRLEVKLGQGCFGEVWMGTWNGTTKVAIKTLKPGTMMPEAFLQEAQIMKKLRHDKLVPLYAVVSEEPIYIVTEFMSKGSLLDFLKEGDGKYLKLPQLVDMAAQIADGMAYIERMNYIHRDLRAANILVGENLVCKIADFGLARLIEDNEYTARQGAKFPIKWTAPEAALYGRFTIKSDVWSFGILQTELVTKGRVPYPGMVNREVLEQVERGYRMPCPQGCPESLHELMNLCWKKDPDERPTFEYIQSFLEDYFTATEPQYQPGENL

Kd [1]: > 30 µM (inactive) | Kd [2]: > 30 µM (inactive) | Kd [3]: > 30 µM (inactive) | Kd [4]: > 30 µM (inactive) | Kd [5]: > 30 µM (inactive) | Kd [6]: > 30 µM (inactive) | Kd [7]: > 30 µM (inactive) | Kd (LIM domain kinase 1): > 30 µM (inactive) | Kd [8]: > 30 µM (inactive) | Kd [9]: > 30 µM (inactive)
SMILES: CCn1c(=O)c(-c2cc[nH]n2)cc2c(C)nc(N)nc21 [VOXTALISIB]
